One may read the IC50 as the concentration that gives 50% inhibition. Low readings indicate greater potency in that assay, high ones weaker potency in that assay.

In experiment [1] the test system is constitutive active colorectal cancer cell (CRC) Wnt pathway. The experiment in a line: HCT116 TOPFlash cellular reporter assay (Super TopFlash luciferase), constitutive active Wnt pathway. The class given is cell-based. To be noted: HCT116 TOP reporter cells, 36 hours incubation, luciferase expression. On the procedure:
In order to discover and characterize small molecules which inhibit the constitutive active colorectal cancer cell (CRC) Wnt pathway, a cellular reporter assay was employed. […] Stable transfectants were generated by cotransfection with pcDNA3 and selection of stable transfected cells with 1 mg/ml G418.
A general note: In a reporter assay the amount or activity of a reporter protein is the signal.

Experiment [2] has as its system HCT116 FOP control reporter cell line. The experiment in a line: HCT116 FOPFlash control reporter assay (FOP control vector, non-functional TCF elements). The settings on record: HCT116 FOP control reporter cells, 36 hours incubation, luciferase expression. It is filed as cell-based. From the text: In a parallel approach, HCT116 cells were cotransfected with the FOP control vector and pcDNA3. The FOP vector is identical to the TOP construct, but it contains instead of functional TCF elements a randomized, non-functional sequence. For this transfection a stable transfected cell line was generated as well.

Each structure is given as a SMILES string. Structures can show the parent of a compound that is named as a salt. Some results are limits rather than exact numbers.

`CC(C(=O)Nc1cc(C(=O)Nc2ccc(-c3cc(F)cc(F)c3)nc2)ccc1OC(F)(F)F)N1C[C@@H]2C[C@H]1CO2` (relative stereo) [Example 180, N-[6-(3,5-difluorophenyl)pyridin-3-yl]-3-({(2R*)-2-[(1S,4S)-2-oxa-5-azabicyclo[2.2.1]hept-5-yl]propanoyl}amino)-4-(trifluoromethoxy)benzamide]: the IC50 in experiment [1] amounted to 148 nM; in experiment [2] it was 9800 nM. For `CC(C(=O)Nc1cc(C(=O)Nc2ccc(-c3cc(F)cc(F)c3)nc2)ccc1OC(F)(F)F)N1C[C@@H]2C[C@H]1CO2` (relative stereo) [Example 181, N-[6-(3,5-difluorophenyl)pyridin-3-yl]-3-({(2S*)-2-[(1S,4S)-2-oxa-5-azabicyclo[2.2.1]hept-5-yl]propanoyl}amino)-4-(trifluoromethoxy)benzamide] the same measures were 53 nM and at least 50000 nM. With `CC(C(=O)Nc1cc(NC(=O)c2ccc(-c3cc(F)cc(F)c3)nc2)ccc1OC(F)(F)F)N1C[C@@H]2C[C@H]1CO2` (relative stereo) [Example 185, 6-(3,5-difluorophenyl)-N-[3-({(2R*)-2-[(1S,4S)-2-oxa-5-azabicyclo[2.2.1]hept-5-yl]propanoyl}amino)-4-(trifluoromethoxy)phenyl] nicotinamide], the figures for the IC50 in experiment [1] and in experiment [2] were 160 nM and 10000 nM, respectively. For `CC(C(=O)Nc1cc(NC(=O)c2ccc(-c3cccc(F)c3)nc2)ccc1OC(F)(F)F)N1C[C@@H]2C[C@H]1CO2` (relative stereo) [Example 193, 6-(3-fluorophenyl)-N-[3-({(2R*)-2-[(1S,4S)-2-oxa-5-azabicyclo[2.2.1]hept-5-yl]propanoyl}amino)-4-(trifluoromethoxy)phenyl] nicotinamide], the IC50 in experiment [1] (Homo sapiens, HCT-116, 36 h) was found to be 148 nM; in experiment [2] (Homo sapiens, HCT-116, 36 h) it was 8800 nM. For `CC(C(=O)Nc1cc(NC(=O)c2ccc(-c3cc(F)cc(F)c3)nc2)ccc1OC(F)(F)F)N1C[C@@H]2C[C@H]1CO2` (relative stereo) [Example 217, 6-(3,5-difluorophenyl)-N-[3-({(2S*)-2-[(1S,4S)-2-oxa-5-azabicyclo[2.2.1]hept-5-yl]propanoyl}amino)-4-(trifluoromethoxy)phenyl] nicotinamide], the results for the IC50 in experiment [1] and in experiment [2] were 438 nM and at least 50000 nM, respectively. As to `CC(C(=O)Nc1cc(NC(=O)c2ccc(-c3cccc(F)c3)nc2)ccc1OC(F)(F)F)N1C[C@@H]2C[C@H]1CO2` (relative stereo) [Example 222, 6-(3-fluorophenyl)-N-[3-({(2S*)-2-[(1S,4S)-2-oxa-5-azabicyclo[2.2.1]hept-5-yl]propanoyl}amino)-4-(trifluoromethoxy)phenyl] nicotinamide], the IC50 is 263 nM in experiment [1] and 15200 nM in experiment [2]. Consider `CC(C(=O)Nc1cc(C(=O)Nc2ccc(-c3cccc(F)c3)nc2)ccc1OC(F)(F)F)N1C[C@@H]2C[C@H]1CO2` (relative stereo) [Example 243, N-[6-(3-fluorophenyl)pyridin-3-yl]-3-({(2R*)-2-[(1S,4S)-2-oxa-5-azabicyclo[2.2.1]hept-5-yl]propanoyl}amino)-4-(trifluoromethoxy)benzamide], for which the figures for the IC50 in experiment [1] and in experiment [2] were 28 nM and 7700 nM, respectively.

Regarding `CC(C(=O)Nc1cc(C(=O)Nc2ccc(-c3cccc(F)c3)nc2)ccc1OC(F)(F)F)N1C[C@@H]2C[C@H]1CO2` (relative stereo) [Example 244, N-[6-(3-fluorophenyl)pyridin-3-yl]-3-({(2S*)-2-[(1S,4S)-2-oxa-5-azabicyclo[2.2.1]hept-5-yl]propanoyl}amino)-4-(trifluoromethoxy)benzamide], the IC50 was 120 nM in experiment [1] and at least 50000 nM in experiment [2]. For `C[C@@H](C(=O)Nc1cc(C(=O)Nc2ccc(-c3ccc(N(C)C)cc3)nc2)ccc1OC(F)(F)F)N1CCOCC1` (single isomer, unassigned) [Example 116, N-{6-[4-(dimethylamino)phenyl]pyridin-3-yl}-3-{[(2S)-2-(morpholin-4-yl)propanoyl]amino}-4-(trifluoromethoxy)benzamide or N-{6-[4-(dimethylamino)phenyl]pyridin-3-yl}-3-{[(2R)-2-(morpholin-4-yl)propanoyl]amino}-4-(trifluoromethoxy)benzamide] the same measures were 84 nM and 8100 nM. `C[C@@H](C(=O)Nc1cc(C(=O)Nc2ccc(-c3ccc(N)cc3)nc2)ccc1OC(F)(F)F)N1CCOCC1` (single isomer, unassigned) [Example 118, N-[6-(4-aminophenyl)pyridin-3-yl]-3-{[(2R)-2-(morpholin-4-yl)propanoyl]amino}-4-(trifluoromethoxy)benzamide or N-[6-(4-aminophenyl)pyridin-3-yl]-3-{[(2S)-2-(morpholin-4-yl)propanoyl]amino}-4-(trifluoromethoxy)benzamide]: the IC50 in experiment [2] was at least 50000 nM. Take `C[C@@H](C(=O)Nc1cc(C(=O)Nc2ccc(-c3ccc(CO)cc3)nc2)ccc1OC(F)(F)F)N1CCOCC1` (single isomer, unassigned) [Example 119, N-{6-[4-(hydroxymethyl)phenyl]pyridin-3-yl}-3-{[(2S)-2-(morpholin-4-yl)propanoyl]amino}-4-(trifluoromethoxy)benzamide or N-{6-[4-(hydroxymethyl)phenyl]pyridin-3-yl}-3-{[(2R)-2-(morpholin-4-yl)propanoyl]amino}-4-(trifluoromethoxy)benzamide]: the values for the 50% inhibitory concentration (IC50) in experiment [1] and in experiment [2] were 650 nM and at least 50000 nM, respectively.

Regarding `C[C@@H](C(=O)Nc1cc(C(=O)Nc2ccc(-c3ccc(CO)cc3)nc2)ccc1OC(F)(F)F)N1CCOCC1` (single isomer, unassigned) [Example 120, N-{6-[4-(hydroxymethyl)phenyl]pyridin-3-yl}-3-{[(2S)-2-(morpholin-4-yl)propanoyl]amino}-4-(trifluoromethoxy)benzamide or N-{6-[4-(hydroxymethyl)phenyl]pyridin-3-yl}-3-{[(2R)-2-(morpholin-4-yl)propanoyl]amino}-4-(trifluoromethoxy)benzamide], the IC50 is 105 nM in experiment [1] and at least 50000 nM in experiment [2]. In the case of `COc1ccc(C(=O)Nc2ccc(-c3ccccc3F)nc2)cc1NC(=O)CN1C[C@@H]2C[C@H]1CO2` [Example 3, N-[6-(2-fluorophenyl)pyridin-3-yl]-4-methoxy-3-{[(1S,4S)-2-oxa-5-azabicyclo[2.2.1]hept-5-ylacetyl]amino}benzamide], the IC50 in experiment [1] (Homo sapiens, HCT-116, 36 h) was 1800 nM; in experiment [2] (Homo sapiens, HCT-116, 36 h), at least 50000 nM. The like results for `COc1ccc(C(=O)Nc2ccc(-c3ccccc3)nc2)cc1NC(=O)CN1CCOCC1` [Example 4, 4-methoxy-3-[(morpholin-4-ylacetyl)amino]-N-(6-phenylpyridin-3-yl)benzamide] were, in that order, 300 nM and at least 50000 nM. For `O=C(CN1CCOCC1)Nc1cc(C(=O)Nc2ccc(-c3ccccc3F)nc2)ccc1OC(F)(F)F` [Example 5, N-[6-(2-fluorophenyl)pyridin-3-yl]-3-[(morpholin-4-ylacetyl)amino]-4-(trifluoromethoxy)benzamide] the same measures were 40.3 nM and at least 50000 nM. `O=C(CN1CCOCC1)Nc1cc(C(=O)Nc2ncc(-c3ccccc3)s2)ccc1C(F)(F)F` [Example 12, 3-[(morpholin-4-ylacetyl)amino]-N-(5-phenyl-1,3-thiazol-2-yl)-4-(trifluoromethyl)benzamide]: the IC50 was 530 nM in experiment [1] (Homo sapiens, HCT-116, 36 h) and at least 50000 nM in experiment [2] (Homo sapiens, HCT-116, 36 h). In the case of `O=C(CN1CCOCC1)Nc1cc(C(=O)Nc2ccc(-c3ccccc3)nc2)ccc1C(F)(F)F` [Example 13, 3-[(morpholin-4-ylacetyl)amino]-N-(6-phenylpyridin-3-yl)-4-(trifluoromethyl)benzamide], the IC50 is 362 nM in experiment [1] (Homo sapiens, HCT-116, 36 h) and at least 50000 nM in experiment [2] (Homo sapiens, HCT-116, 36 h). The like results for `CC(C)(C)c1ccc(NC(=O)c2ccc(-c3ccccc3)nc2)cc1NC(=O)CN1CCOCC1` [Example 18, N-{4-tert-butyl-3-[(morpholin-4-ylacetyl)amino]phenyl}-6-phenylnicotinamide] were, in that order, 444 nM and 9900 nM. `COc1ccc(NC(=O)c2ncc(-c3ccccc3)s2)cc1NC(=O)CN1CCOCC1` [Example 23, N-{4-methoxy-3-[(morpholin-4-ylacetyl)amino]phenyl}-5-phenyl-1,3-thiazole-2-carboxamide]: the IC50 was 98 nM in experiment [1] (Homo sapiens, HCT-116, 36 h) and at least 50000 nM in experiment [2] (Homo sapiens, HCT-116, 36 h). `COc1ccc(NC(=O)c2ccc(-c3ccccc3)[nH]2)cc1NC(=O)CN1CCOCC1` [Example 24, N-{4-methoxy-3-[(morpholin-4-ylacetyl)amino]phenyl}-5-phenyl-1H-pyrrole-2-carboxamide] came in with an IC50 in experiment [2] (Homo sapiens, HCT-116, 36 h) of at least 50000 nM.

The compound `O=C(CN1CCOCC1)Nc1cc(NC(=O)c2cc(-c3ccccc3)[nH]n2)ccc1OC(F)(F)F` [Example 124, N-{3-[(morpholin-4-ylacetyl)amino]-4-(trifluoromethoxy)phenyl}-5-phenyl-1H-pyrazole-3-carboxamide] showed an IC50 in experiment [2] (Homo sapiens, HCT-116, 36 h) of at least 50000 nM. In experiment [1] (Homo sapiens, HCT-116, 36 h), `CC(C(=O)Nc1cc(C(=O)Nc2nnc(-c3ccccc3)s2)ccc1CS(C)(=O)=O)N1CCN(C)CC1` (centres unmarked) [Example 230, 3-{[2-(4-methylpiperazin-1-yl)propanoyl]amino}-4-[(methylsulfonyl)methyl]-N-(5-phenyl-1,3,4-thiadiazol-2-yl)benzamide trifluoroacetate (1:1)] showed an IC50 of 720 nM. Regarding `CC(C(=O)Nc1cc(C(=O)Nc2nnc(-c3ccccc3)s2)ccc1OC(F)(F)F)N1CCOCC1` (centres unmarked) [Example 242, 3-{[2-(morpholin-4-yl)propanoyl]amino}-N-(5-phenyl-1,3,4-thiadiazol-2-yl)-4-(trifluoromethoxy)benzamide], the IC50 in experiment [2] is at least 50000 nM.
